Measured values reported in patent publication US20260077043A1, “COMBINATION THERAPY” (LEAP THERAPEUTICS, INC., priority 2022, published 2026).

Legend:
[1] = system: HCT116 human colorectal carcinoma cells with H1047R mutation; assay: HCT116 H1047/− subcutaneous xenograft, tumor growth inhibition; assay type: in vivo, BALB/c scid mice; details: Day 48 (Treatment Day 36), compared to the IgG4 control; DKN-01 5 mg/kg IP twice weekly, BYL719 25 mg/kg PO QD
From the text: (§1) A study was initiated to evaluate growth of a human colorectal cancer cell line, HCT116, with and without the PI3KCA H1047R mutation in mice treated with DKN-01, the PI3KCA inhibitor BYL719 (Alpelisib), or the combination. Female BALB/c scid mice were inoculated subcutaneously with HCT116 human colon carcinoma cells with or without the H1047R mutation on Day 0. On Day 17, when tumors volumes had reached 50-75 mm3, animals were randomized into treatment groups and dosing was initiated.
(§2) Female BALB/c scid mice (10 per group) were inoculated subcutaneously in the right flank with 10×10^6 HCT116 human colorectal carcinoma cells on Day 0. Human IgG4 control (10 mg/kg) and DKN-01 (5 mg/kg) were administered intraperitoneally (IP) twice weekly. BYL719 (25 mg/kg) was administered orally (PO) every day (QD) for the duration of the study. Tumor measurements were performed every 3-4 days with calipers and volume (V) was calculated using the following formula: V=½(length [mm]×width [mm]^2). Data are shown as mean tumor volumes (MTV)+SEM. #, p<0.05. Percent TGI =[(MTV Control)−(MTV Treated)]/(MTV Control). Comparisons between groups at study termination were performed using a one-way repeated measures ANOVA with Tukey's multiple comparisons test.

[2] = system: HCT116 human colorectal carcinoma cells without the PIK3CA H1047R mutation; assay: HCT116 PIK3CA+/− subcutaneous xenograft, tumor growth inhibition; assay type: in vivo, BALB/c scid mice; details: Day 52 (Treatment Day 36), compared to the IgG4 control; DKN-01 5 mg/kg IP twice weekly, BYL719 25 mg/kg PO QD
From the text: as §1, §2

Cc1nc(NC(=O)N2CCC[C@H]2C(N)=O)sc1-c1ccnc(C(C)(C)C(F)(F)F)c1 [BYL719, Alpelisib]
Tumor Growth Inhibition (TGI) [1]: 56% | Tumor Growth Inhibition (TGI) [2]: 50%
